This passage reports Kp, AUC(0-t) and Cmax results from ChEMBL document CHEMBL2396562, “Synthesis and SAR of potent and selective tetrahydropyrazinoisoquinolinone 5-HT(2C) receptor agonists” (Bioorg Med Chem Lett, 2013).

Series [1] is described as follows: in vivo. The conditions noted are these: Sprague-Dawley, rat, brain/plasma, po, 10 mg/kg.
A short description of series [2]: in vivo. The conditions noted are these: Sprague-Dawley, rat, po, 10 mg/kg.
Series [3] in a line: in vivo. The conditions noted are these: Sprague-Dawley, rat, po, 10 mg/kg. The source holds these as a separate data set.

A word on the Kp: it is the ratio of the level in a tissue or fluid to that in plasma or blood. The AUC(0-t) is the area under the concentration-time curve up to a stated or last time point. A low value points to less exposure. The term Cmax denotes the highest concentration seen after dosing. Regarding `CCc1cccc2c1C[C@@H]1CNCCN1C2=O`, the Kp in “in vivo [1]” worked out at 3.9. The same molecule yielded an AUC(0-t) at 4 h in “in vivo [2]” of 9.64 µM·h. The molecule further had a Cmax in the series “in vivo [3]” of 3.62 µM.
